We go through 25 molecules from patent US4348393A, “N-Aryl oxazolidinones, oxazolidinethiones, pyrrolidinones, pyrrolidines and thiazolidinones” (Delalande S.A., priority 1978, dated 1982).

Experiment [1] concerns ptosis observed one hour after reserpine. Put plainly: Test B: antagonism of reserpine-induced ptosis in mice. The class given is in vivo. The conditions noted are these: Mus musculus, 1 h, po, antagonism of ptosis one hour after reserpine 2 mg/kg intravenous, read-out: Test B ED 50. The protocol: Test B: Antagonism with respect to the ptosis observed one hour after an intravenous injection (2 mg/kg) of reserpine given to mice, following the protocol described by C.

For experiment [2], the system named is generalized trembling caused by dl-5-hydroxytryptophane. Kind of experiment: Test A: potentiation in mice of generalized trembling caused by dl-5-hydroxytryptophane. It counts as in vivo. The conditions noted are these: Mus musculus, po, mice, potentiation of trembling by dl-5-hydroxytryptophane 200 mg/kg interperitoneal, read-out: Test A ED 50. The protocol: Test A: Potentiation in mice of generalized trembling caused by an interperitoneal injection (200 mg/kg) of dl-5-hydroxytryptophane, following the protocol described by C. GOURET and G. RAYNAUD in J. Pharmacol. (Paris), (1974), 5, 231.

For the molecule `CCCCOc1ccc(N2CC(COC(C)C)OC2=O)cc1` (centres unmarked) [compound 47, para-n-butyloxy phenyl-3 isopropyloxymethyl-5 oxazolidinone-2], the ED50 was 36 mg/kg in experiment [1] and 18 mg/kg in experiment [2].
For `CCCCOc1ccc(N2CC(COC(C)=O)OC2=O)cc1` (centres unmarked) [compound 11], in that order: 6.2 mg/kg and 4.2 mg/kg.
For `CCC(=O)OCC1CN(c2ccc(OCCC#N)cc2)C(=O)O1` (centres unmarked) [compound 4], in that order: 3.4 mg/kg and 2.3 mg/kg.
In the case of `N#CCCOc1ccc(N2CC(COC3CCCCC3)OC2=O)cc1` (centres unmarked) [compound 54], the results for the ED50 in experiment [1] and in experiment [2] were 12.5 mg/kg and 14 mg/kg, respectively.
The like results for `CCCCOc1ccc(N2CC(COCCC)OC2=O)cc1` (centres unmarked) [compound 142] were, in that order, 17.5 mg/kg and 18 mg/kg.
For `CCCCC(=O)OCC1CN(c2ccc(OCc3cccc([N+](=O)[O-])c3)cc2)C(=O)O1` (centres unmarked) [compound 39], in that order: 1.6 mg/kg and 1.75 mg/kg.
On to `O=C(OCC1CN(c2ccc(OCC3CCCCC3)cc2)C(=O)O1)C1CCCCC1` (centres unmarked) [compound 121], for which the figures for the ED50 in experiment [1] and in experiment [2] were 8 mg/kg and 11 mg/kg, respectively.
For `CCCOCC1CN(c2ccc(OCc3ccccc3)cc2)C(=O)O1` (centres unmarked) [compound 152], in that order: 15.5 mg/kg and 18 mg/kg.
With `Cc1cccc(N2CC(CO)OC2=O)c1` (centres unmarked) [TOLOXATONE, reference compound], the ED50 in experiment [1] was determined as 50 mg/kg; in experiment [2], 60 mg/kg.
The like results for `CCOCC1CN(c2ccc(OCc3cccc(Cl)c3)cc2)C(=O)O1` (centres unmarked) [compound 155] were, in that order, 3 mg/kg and 9.6 mg/kg.
Take `N#CCCOc1ccc(N2CC(COC(=O)C3CCCCC3)OC2=O)cc1` (centres unmarked) [compound 8]: the ED50 in experiment [1] is 7.2 mg/kg; in experiment [2], 2.2 mg/kg.
The like results for `CC(=O)OCC1CN(c2ccc(OCc3cccc(F)c3)cc2)C(=O)O1` (centres unmarked) [compound 130] were, in that order, 9.6 mg/kg and 6.2 mg/kg.
As to `N#CCOc1ccc(N2CC(CO)OC2=S)cc1` (centres unmarked) [compound 92], the ED50 stood at 50 mg/kg in experiment [1] and 30 mg/kg in experiment [2].
The like results for `COCC1CN(c2ccc(OCCCCC#N)cc2)C(=S)O1` (centres unmarked) [compound 217] were, in that order, 1 mg/kg and 1 mg/kg.
As to `CCCCOc1ccc(N2CC(CN)OC2=O)cc1` (centres unmarked) [compound 170], the ED50 stood at 16 mg/kg in experiment [1] and 12.5 mg/kg in experiment [2].
`COCC1CN(c2ccc(/C=C\c3ccccc3)cc2)C(=O)O1` (centres unmarked) [compound 193]: the ED50 in experiment [1] was 30 mg/kg; in experiment [2], 19 mg/kg.
As to `CCC(=O)OCC1CN(c2ccc(OCC3CCCC3)cc2)C(=O)O1` (centres unmarked) [compound 14], the ED50 in experiment [1] came out at 3.1 mg/kg; in experiment [2] it was 2 mg/kg.
The like results for `CCCCCCCCC(=O)OCC1CN(c2ccc(OCc3cccc(Cl)c3)cc2)C(=O)O1` (centres unmarked) [compound 35] were, in that order, 6.5 mg/kg and 19 mg/kg.
The like results for `O=C(OCC1CN(c2ccc(OCc3cccc([N+](=O)[O-])c3)cc2)C(=O)O1)C1CCCCC1` (centres unmarked) [compound 41] were, in that order, 4.5 mg/kg and 6.2 mg/kg.
For `CC(C)C(=O)OCC1CN(c2ccc(OCc3ccccc3)cc2)C(=O)O1` (centres unmarked) [compound 25], in that order: 25 mg/kg and 15 mg/kg.
On to `CCOCC1CN(c2ccc(OCc3cccc([N+](=O)[O-])c3)cc2)C(=O)O1` (centres unmarked) [compound 69], for which the ED50 worked out at 0.2 mg/kg in experiment [1] and 0.5 mg/kg in experiment [2].
The like results for `CNCC1CN(c2ccc(OCCC(C)C)cc2)C(=O)O1` (centres unmarked) [compound 79] were, in that order, 2 mg/kg and 6.2 mg/kg.
For `CC(C)(C)C(=O)OCC1CN(c2ccc(OCc3cccc(Cl)c3)cc2)C(=O)O1` (centres unmarked) [compound 34], in that order: 7.5 mg/kg and 7 mg/kg.
For `COCC1CN(c2ccc(OCc3ccccc3)cc2)C(=O)O1` (centres unmarked) [compound 57], the ED50 in experiment [1] was determined as 9 mg/kg; in experiment [2] it was 7.8 mg/kg.
The like results for `CCCCOc1ccc(N2CC(COC)OC2=O)cc1` (centres unmarked) [compound 46] were, in that order, 2 mg/kg and 1.5 mg/kg.
